Results as given in US20070191431A1, “2-Amino-5-piperidinylimidazolone compounds and use thereof for beta-secretase modulation” (Wyeth, priority 2005, published 2007).

Tests used:
human BACE1 = human BACE1 (Homo sapiens, UniProt P56817); assay: BACE-1 fluorescent kinetic assay (Example 88); type: biochemical; conditions: 10 nM enzyme, 25 μM substrate WABC-6, Na-Acetate pH 4.5, room temperature; read-out: BACE1 (IC50 μM)
Method: Evaluation of BACE-1 Binding Affinity of Test Compounds
Fluorescent Kinetic Assay
Dilution and mixing steps: total reaction volume: 100 μL
100 μM substrate dilution in 1× PBS was prepared, and
Fluorescence Readings: Readings at Aex 320 nm and Aem 420 nm are taken every 40 sec for 30 min at room temperature and the linear slope for substrate cleavage rate (vi) determined.

Chain of human BACE1 (P56817 46-501): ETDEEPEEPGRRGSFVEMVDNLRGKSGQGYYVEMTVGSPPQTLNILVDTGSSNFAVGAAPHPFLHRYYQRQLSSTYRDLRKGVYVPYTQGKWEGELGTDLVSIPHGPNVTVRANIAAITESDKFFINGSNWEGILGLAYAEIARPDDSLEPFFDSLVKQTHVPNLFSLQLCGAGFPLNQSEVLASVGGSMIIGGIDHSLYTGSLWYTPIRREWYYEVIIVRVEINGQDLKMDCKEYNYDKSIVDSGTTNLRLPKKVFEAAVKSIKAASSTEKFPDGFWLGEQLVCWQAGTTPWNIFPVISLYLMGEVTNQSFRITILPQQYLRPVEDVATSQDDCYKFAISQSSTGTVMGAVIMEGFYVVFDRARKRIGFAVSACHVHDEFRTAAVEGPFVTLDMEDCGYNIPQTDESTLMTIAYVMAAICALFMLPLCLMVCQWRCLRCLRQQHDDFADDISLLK

melting point	IC50 (human BACE1) [µM]	SMILES
> 160 °C (dec.)	0.01 to 1	COCC(=O)Nc1cccc(C2(C3CCN(C(=O)c4ccc5c(c4)OCO5)CC3)N=C(N)N(C)C2=O)c1 (stereo not shown) [Example 51]
160 to 164 °C	0.01 to 1	COCC(=O)Nc1cccc(C2(C3CCN(C(=O)c4ccc(C#N)cc4)CC3)N=C(N)N(C)C2=O)c1 (stereo not shown) [Example 52]
